Molecular target: T1, p300 (Homo sapiens, UniProt Q09472)
T1 construct: gene EP300; hexahistidine tagged full length p300
Test: filter binding KAT assay with HeLa core histones; enzyme inhibition kinetics
Assay type: biochemical

T1 sequence (Q09472 2-2414): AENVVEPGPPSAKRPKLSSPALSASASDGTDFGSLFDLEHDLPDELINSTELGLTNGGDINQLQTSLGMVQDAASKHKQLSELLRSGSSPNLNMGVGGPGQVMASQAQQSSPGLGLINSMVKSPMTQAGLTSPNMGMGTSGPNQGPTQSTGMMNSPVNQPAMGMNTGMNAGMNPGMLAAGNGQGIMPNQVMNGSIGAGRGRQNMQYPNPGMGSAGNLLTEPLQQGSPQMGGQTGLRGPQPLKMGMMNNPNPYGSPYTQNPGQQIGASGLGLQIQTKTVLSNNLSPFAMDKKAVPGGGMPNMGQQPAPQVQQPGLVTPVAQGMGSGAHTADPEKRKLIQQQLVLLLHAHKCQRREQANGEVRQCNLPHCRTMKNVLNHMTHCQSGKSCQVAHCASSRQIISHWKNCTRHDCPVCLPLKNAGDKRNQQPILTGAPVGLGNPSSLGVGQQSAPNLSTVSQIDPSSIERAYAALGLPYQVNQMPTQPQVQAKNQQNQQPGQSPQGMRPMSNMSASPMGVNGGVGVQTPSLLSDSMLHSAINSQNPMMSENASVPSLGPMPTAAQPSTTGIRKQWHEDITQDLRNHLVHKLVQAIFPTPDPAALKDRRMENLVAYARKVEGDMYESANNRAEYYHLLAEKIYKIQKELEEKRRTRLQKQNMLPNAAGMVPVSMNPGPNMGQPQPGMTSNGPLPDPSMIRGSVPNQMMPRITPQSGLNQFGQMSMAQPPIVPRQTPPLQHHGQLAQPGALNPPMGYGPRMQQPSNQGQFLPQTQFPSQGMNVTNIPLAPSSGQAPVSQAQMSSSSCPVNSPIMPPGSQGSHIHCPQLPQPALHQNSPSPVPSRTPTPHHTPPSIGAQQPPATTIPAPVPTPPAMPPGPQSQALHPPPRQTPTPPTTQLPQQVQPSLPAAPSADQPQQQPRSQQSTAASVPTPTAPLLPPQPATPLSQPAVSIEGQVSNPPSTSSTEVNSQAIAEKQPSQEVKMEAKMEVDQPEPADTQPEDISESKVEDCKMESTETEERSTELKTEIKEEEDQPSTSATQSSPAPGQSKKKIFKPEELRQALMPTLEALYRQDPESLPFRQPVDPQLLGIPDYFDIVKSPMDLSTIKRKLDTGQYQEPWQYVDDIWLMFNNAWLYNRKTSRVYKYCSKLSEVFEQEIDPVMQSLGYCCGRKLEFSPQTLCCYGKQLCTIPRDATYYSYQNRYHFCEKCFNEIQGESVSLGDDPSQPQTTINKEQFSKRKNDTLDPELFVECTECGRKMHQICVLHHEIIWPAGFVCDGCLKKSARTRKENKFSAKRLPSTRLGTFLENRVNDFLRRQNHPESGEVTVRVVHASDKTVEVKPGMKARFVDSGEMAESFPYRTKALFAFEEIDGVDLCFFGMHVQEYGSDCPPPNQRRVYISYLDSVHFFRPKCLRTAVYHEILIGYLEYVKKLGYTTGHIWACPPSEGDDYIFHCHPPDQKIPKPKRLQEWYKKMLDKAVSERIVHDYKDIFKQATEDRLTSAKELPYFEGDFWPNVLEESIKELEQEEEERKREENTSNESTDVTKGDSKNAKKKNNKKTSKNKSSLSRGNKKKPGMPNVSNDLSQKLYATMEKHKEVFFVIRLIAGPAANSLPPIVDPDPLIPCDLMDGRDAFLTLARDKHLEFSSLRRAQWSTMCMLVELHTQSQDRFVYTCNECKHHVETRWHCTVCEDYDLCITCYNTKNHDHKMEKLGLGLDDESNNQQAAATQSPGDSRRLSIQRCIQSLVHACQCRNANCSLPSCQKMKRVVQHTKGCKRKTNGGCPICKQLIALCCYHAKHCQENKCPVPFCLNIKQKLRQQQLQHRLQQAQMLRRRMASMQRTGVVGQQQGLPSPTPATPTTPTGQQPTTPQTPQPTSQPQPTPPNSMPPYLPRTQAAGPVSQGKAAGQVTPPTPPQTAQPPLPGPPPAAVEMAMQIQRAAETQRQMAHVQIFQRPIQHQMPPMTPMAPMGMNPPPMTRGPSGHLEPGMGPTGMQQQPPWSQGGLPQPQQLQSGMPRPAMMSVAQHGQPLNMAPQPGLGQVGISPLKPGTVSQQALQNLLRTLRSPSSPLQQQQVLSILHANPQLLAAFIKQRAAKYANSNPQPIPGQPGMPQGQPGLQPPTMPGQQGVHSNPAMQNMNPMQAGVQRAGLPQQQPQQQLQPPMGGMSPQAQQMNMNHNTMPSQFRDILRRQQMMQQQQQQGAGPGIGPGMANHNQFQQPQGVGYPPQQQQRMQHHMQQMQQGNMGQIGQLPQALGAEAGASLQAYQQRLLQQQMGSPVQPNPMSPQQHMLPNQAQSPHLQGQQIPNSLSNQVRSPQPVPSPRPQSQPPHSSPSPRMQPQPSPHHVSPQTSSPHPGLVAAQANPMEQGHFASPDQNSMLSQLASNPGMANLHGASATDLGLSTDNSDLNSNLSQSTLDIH

Compound `O=c1cc(-c2ccc(O)c(O)c2)oc2cc(O)cc(O)c12` [luteolin] has an IC50 of 7 µM.

Reference: publication PMC4791268, “Inhibition of p300 lysine acetyltransferase activity by luteolin reduces tumor growth in head and neck squamous cell carcinoma (HNSCC) xenograft mouse model” (Oncotarget, 2015)
